Key:
cyclin D1 = test: Western blot of cyclin D1 expression after exposure to kainate, normalized by class III β-tubulin; format: cell-based, Wistar rats; conditions: kainate 75 μM, 100% before kainate
Method: After exposure of the hippocampus cells to kainate, the cells were washed in PBS then lysed in a Laemli buffer. The samples were subjected to sonication and heated at 100° C. for 5 minutes. Electrophoresis with a 12% SDS-polyacrylamide gel was then performed. The proteins were then transferred onto a nitrocellulose membrane and incubated with an anti-cyclin D1 monoclonal antibody or with an anti-CDK5 polyclonal antibody (Santa Cruz, Calif., USA) or with a class III anti-β-tubulin monoclonal antibody (Sigma, St. Louis, USA), a specific neuronal marker. Labeling was performed using the anti-rabbit antibody or anti-mouse antibody coupled to horseradish peroxidase using the ECLTM kit (Amersham Corp., England). The control experiments were performed by omitting the first antibodies.

hippocampus cells = test: Kainate-dependent neuronal death in primary hippocampus cell cultures (propidium iodine); format: cell-based, Wistar rats; conditions: kainate 20 μM
Method: Neuronal death was analyzed by phase contrast microscopy and the use of two death markers: propidium iodine and Hoechst dye (Bisbenzimide).
Counting was performed on hippocampus cultures exposed to 20 μM of kainate. At least two dishes per condition were evaluated.

[1] = tested on: excitotoxic neuronal death induced by kainate; conditions: inhibitors of caspases; cited from earlier work
[2] = 5 hours, in the absence of inhibitor

Compound: C=C(C)[C@H]1CN[C@H](C(=O)O)[C@H]1CC(=O)O [kainate]
- normalized level of expression of cyclin D1 (percentage of the control) (cyclin D1): more than 150%
- augmentation of neuronal death in relation to the cultures without kainate (hippocampus cells; [2]): 150%
- neuronal death (hippocampus cells; [2]): ~65%
- time of mortality peak (hippocampus cells; propidium iodine): 5 h

Compound: YVAD-CHO
- prevention of excitotoxic neuronal death induced by kainate [1]: can not be prevented

Compound: DEVD-CHO
- prevention of excitotoxic neuronal death induced by kainate [1]: can not be prevented
